Experimental data published in patent publication US20240018153A1, “BENZENESULFONAMIDE DERIVATIVES AND USES THEREOF” (2692372 ONTARIO, INC., priority 2020, published 2024).

Assays:
BTK [1] = target: T1, BTK (Homo sapiens (Human), UniProt Q06187); assay: Ramos RA1 cell lysis and immunoassay, phospho-BTK (Y223) inhibition; format: cell-based; design: key: X: BTK bound and autophosphoration of BTK inhibited in cells; conditions: RAMOS cells, compound concentration 1 μM
Procedure, shortened: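 Ramos RA1 cells treated with compound or DMSO for 24 h at 37° C., lysed in RIPA, analysed by Simple Western. Total BTK normalised to β-actin, pBTK (Y223) to total-protein reagent; both expressed relative to DMSO control.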

RIPK2 = RIPK2 (Homo sapiens (Human), UniProt O43353); assay: In vitro RIPK2 inhibition; format: biochemical; conditions: for remaining activity at 1 µM: read-out: % RIPK2 Remaining activity vs DMSO (1 μM, 3 h); for remaining activity at 10 µM: read-out: % RIPK2 Remaining activity vs DMSO (10 μM, 3 h)
Sequence of RIPK2 (O43353 whole entry, species assumed): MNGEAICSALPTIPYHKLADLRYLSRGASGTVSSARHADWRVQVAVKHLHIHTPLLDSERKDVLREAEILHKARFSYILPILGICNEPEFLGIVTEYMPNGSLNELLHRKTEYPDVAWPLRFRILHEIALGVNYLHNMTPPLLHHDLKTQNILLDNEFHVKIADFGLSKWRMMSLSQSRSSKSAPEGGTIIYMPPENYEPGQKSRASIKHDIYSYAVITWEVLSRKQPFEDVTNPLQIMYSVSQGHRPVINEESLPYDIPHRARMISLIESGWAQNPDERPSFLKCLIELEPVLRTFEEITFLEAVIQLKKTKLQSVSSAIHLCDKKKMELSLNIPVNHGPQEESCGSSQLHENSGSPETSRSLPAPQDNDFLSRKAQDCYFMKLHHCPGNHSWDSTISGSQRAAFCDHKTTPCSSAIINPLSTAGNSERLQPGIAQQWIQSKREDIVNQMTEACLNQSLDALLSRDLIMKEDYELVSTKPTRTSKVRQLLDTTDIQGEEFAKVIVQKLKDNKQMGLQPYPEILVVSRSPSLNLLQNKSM

EGFR = EGFR (Homo sapiens (Human), UniProt P00533); assay: HTRF KinEASE-TK kinase assay, EGFR; format: biochemical; conditions: 3 h preincubation; for remaining activity at 1 µM: 1 μM compound, read-out: % EGFR Remaining activity vs DMSO (1 μM, 3 h); for remaining activity at 10 µM: 10 μM compound, read-out: % EGFR Remaining activity vs DMSO (10 μM, 3 h); for IC50: dose response, read-out: EGFR Inhibition IC50
Sequence of EGFR (P00533 25-1210): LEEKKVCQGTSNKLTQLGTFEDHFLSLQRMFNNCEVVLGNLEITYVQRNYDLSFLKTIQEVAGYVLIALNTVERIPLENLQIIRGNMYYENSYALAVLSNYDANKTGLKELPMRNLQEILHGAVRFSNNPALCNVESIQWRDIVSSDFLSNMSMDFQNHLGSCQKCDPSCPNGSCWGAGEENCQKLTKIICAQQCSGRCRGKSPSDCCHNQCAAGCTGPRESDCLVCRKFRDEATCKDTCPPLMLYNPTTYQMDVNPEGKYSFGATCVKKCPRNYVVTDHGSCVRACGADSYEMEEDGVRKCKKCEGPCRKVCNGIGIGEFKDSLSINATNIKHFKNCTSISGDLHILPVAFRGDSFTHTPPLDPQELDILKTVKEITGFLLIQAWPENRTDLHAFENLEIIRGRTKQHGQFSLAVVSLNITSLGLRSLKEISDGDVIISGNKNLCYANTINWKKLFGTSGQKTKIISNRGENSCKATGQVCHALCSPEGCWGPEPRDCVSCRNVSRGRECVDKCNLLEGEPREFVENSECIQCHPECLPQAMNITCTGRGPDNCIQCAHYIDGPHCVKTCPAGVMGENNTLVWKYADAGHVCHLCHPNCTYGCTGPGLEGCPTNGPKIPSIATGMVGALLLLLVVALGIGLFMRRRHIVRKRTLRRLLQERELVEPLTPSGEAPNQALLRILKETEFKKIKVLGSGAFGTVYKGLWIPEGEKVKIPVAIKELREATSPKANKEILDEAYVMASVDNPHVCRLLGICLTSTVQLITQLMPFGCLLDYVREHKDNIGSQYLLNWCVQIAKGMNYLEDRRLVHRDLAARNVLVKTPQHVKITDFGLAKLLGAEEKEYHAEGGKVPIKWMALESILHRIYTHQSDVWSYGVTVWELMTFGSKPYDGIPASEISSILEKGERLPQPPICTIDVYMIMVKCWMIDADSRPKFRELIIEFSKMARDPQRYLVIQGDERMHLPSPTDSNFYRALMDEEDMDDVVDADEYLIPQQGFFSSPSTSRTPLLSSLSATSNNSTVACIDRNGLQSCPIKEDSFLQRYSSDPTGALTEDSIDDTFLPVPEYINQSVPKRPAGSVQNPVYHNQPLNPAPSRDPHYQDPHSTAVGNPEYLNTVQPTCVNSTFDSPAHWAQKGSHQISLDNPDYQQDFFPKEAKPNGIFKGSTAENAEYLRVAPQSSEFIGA
Procedure, shortened: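 HTRF KinEASE-TK format: EGFR pre-incubated with compound at 1 and 10 uM final (0.5% DMSO) in kinase buffer with 2 mM MnCl2, 5 mM MgCl2 and 1 mM TCEP.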

BMX = BMX (Homo sapiens (Human), UniProt P51813); assay: HTRF KinEASE-TK kinase assay, BMX; format: biochemical; conditions: for remaining activity at 1 µM: 1 uM compound; for remaining activity at 1 µM / remaining activity at 10 µM: 3 h preincubation; for remaining activity at 10 µM: 10 uM compound; for IC50: dose response
Sequence of BMX (P51813 whole entry): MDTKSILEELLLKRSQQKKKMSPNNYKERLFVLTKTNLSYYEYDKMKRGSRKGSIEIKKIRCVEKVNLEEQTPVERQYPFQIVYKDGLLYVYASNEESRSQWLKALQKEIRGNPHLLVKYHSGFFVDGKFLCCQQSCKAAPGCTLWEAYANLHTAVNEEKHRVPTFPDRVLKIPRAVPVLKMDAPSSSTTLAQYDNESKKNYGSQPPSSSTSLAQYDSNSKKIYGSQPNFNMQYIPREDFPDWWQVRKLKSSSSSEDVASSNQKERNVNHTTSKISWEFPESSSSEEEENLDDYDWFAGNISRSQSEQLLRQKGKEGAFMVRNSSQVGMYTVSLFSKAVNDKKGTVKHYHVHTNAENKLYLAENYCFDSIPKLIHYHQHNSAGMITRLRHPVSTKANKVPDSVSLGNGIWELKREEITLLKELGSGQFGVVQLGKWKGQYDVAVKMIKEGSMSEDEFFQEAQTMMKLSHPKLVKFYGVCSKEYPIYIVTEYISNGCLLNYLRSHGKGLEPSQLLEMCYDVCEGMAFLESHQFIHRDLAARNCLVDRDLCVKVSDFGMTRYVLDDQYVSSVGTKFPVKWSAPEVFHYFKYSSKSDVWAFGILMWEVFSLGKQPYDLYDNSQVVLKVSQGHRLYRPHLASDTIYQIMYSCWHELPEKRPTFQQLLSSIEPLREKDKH
Procedure, shortened: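 Purchased BMX (0.333 ng/ul, 3.03 nM) was preincubated with or without inhibitor for 3 h at room temperature, then biotinylated substrate and ATP were added. Reactions were stopped with EDTA-containing buffer holding 31.25 nM SA-XL665 and Eu-antibody, and after 60 min phosphorylation was read as the HTRF 665/620 nm emission ratio.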

FGFR4 = FGFR4 (Homo sapiens (Human), UniProt P22455); assay: HTRF KinEASE-TK kinase assay, FGFR4; format: biochemical; conditions: for remaining activity at 1 µM: read-out: % FGFR4 Remaining activity vs DMSO (1 μM, 3 h); for remaining activity at 10 µM: read-out: % FGFR4 Remaining activity vs DMSO (10 μM, 3 h); for IC50: dose response
Sequence of FGFR4 (P22455 22-802): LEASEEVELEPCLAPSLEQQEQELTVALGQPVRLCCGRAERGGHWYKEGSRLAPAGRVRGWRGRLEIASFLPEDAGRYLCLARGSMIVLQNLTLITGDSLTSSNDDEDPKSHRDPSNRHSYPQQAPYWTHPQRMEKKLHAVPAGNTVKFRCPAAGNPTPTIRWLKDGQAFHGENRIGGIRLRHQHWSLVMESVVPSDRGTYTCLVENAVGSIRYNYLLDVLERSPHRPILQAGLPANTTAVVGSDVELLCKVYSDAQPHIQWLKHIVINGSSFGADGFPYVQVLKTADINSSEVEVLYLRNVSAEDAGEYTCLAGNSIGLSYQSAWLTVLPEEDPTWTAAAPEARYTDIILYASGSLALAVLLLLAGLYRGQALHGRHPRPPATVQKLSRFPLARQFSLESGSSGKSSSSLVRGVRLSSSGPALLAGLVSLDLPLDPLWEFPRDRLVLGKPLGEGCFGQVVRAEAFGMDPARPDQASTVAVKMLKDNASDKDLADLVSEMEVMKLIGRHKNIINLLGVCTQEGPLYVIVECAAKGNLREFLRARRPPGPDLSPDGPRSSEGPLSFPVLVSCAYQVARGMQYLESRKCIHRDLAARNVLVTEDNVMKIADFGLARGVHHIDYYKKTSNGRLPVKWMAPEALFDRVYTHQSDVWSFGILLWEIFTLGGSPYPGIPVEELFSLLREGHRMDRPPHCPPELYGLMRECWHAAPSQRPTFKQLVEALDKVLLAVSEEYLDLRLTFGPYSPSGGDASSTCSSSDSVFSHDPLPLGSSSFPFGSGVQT
Procedure, shortened: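 Promega FGFR4 at 0.333 ng/ul (5.12 nM) preincubated with or without inhibitor for 3 h at room temperature, then reaction started with biotinylated substrate and ATP. Stopped with EDTA detection buffer containing 31.25 nM SA-XL665 and Eu-antibody; after 60 min, HTRF 665/620 nm ratio read as substrate phosphorylation.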

BTK [2] = target: T1, BTK; assay: HTRF KinEASE-TK kinase assay, BTK; format: biochemical; conditions: 3 h preincubation; for remaining activity at 1 µM: 1 μM compound, read-out: % BTK Remaining activity vs DMSO (1 μM, 3 h); for remaining activity at 10 µM: 10 μM compound, read-out: % BTK Remaining activity vs DMSO (10 μM, 3 h); for IC50: dose response, read-out: BTK Inhibition IC50
Procedure, shortened: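 BTK activity in HTRF KinEASE-TK format, buffer containing 10 mM MnCl2, 5 mM MgCl2, 1 uM ATPγS and 1 mM TCEP; 45 min reaction with biotinylated substrate and ATP.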

JAK3 = JAK3 (Homo sapiens (Human), UniProt P52333); assay: HTRF KinEASE-TK kinase assay, JAK3; format: biochemical; conditions: for IC50: dose response; for remaining activity at 1 µM: read-out: % JAK3 Remaining activity vs DMSO (1 μM, 3 h); for remaining activity at 10 µM: read-out: % JAK3 Remaining activity vs DMSO (10 μM, 3 h)
Sequence of JAK3 (P52333 781-1124): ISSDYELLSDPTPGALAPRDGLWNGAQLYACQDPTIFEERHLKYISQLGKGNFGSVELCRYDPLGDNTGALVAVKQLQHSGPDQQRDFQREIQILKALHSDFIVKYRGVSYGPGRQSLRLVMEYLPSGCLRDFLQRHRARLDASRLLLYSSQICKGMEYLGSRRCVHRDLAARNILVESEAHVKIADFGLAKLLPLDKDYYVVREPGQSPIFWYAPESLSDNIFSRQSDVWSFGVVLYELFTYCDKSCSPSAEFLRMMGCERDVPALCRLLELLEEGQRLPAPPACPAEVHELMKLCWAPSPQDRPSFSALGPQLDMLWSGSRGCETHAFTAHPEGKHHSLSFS
Procedure, shortened: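 Promega JAK3 at 0.21 nM was preincubated with inhibitor for 3 h at room temperature before biotinylated substrate and ATP were added. The reaction was stopped with EDTA detection buffer containing 31.25 nM SA-XL665 and Eu-antibody. After 60 min, the HTRF 665/620 nm emission ratio reflected substrate phosphorylation.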

T1 sequence (Q06187 whole entry): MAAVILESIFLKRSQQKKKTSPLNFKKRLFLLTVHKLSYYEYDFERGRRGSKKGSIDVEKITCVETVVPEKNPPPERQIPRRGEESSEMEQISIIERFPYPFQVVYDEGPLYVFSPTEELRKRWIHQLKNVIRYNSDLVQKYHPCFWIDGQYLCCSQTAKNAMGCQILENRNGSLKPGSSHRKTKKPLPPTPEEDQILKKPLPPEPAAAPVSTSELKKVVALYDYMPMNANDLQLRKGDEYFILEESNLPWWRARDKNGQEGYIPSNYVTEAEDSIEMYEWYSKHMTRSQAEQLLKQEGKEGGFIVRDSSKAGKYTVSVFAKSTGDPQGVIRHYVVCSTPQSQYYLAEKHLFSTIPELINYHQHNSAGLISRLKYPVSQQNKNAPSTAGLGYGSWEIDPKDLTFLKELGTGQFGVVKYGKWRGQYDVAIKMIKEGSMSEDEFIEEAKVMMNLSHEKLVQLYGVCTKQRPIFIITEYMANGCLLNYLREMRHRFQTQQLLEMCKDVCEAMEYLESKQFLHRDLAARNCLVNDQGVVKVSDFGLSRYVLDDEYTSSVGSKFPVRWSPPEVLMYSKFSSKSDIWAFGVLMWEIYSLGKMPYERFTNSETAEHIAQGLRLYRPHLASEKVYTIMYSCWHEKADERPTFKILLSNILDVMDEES

SMILES | pBTK inhibition (RAMOS, 24 h) (BTK [1]) | remaining activity at 1 µM (RIPK2) [%] | remaining activity at 10 µM (RIPK2) [%] | remaining activity at 1 µM (EGFR) [%] | remaining activity at 10 µM (EGFR) [%] | IC50 (EGFR) [nM] | remaining activity at 1 µM (BMX) [%] | remaining activity at 10 µM (BMX) [%] | IC50 (BMX) [nM] | remaining activity at 1 µM (FGFR4) [%] | remaining activity at 10 µM (FGFR4) [%] | remaining activity at 1 µM (BTK [2]) [%] | remaining activity at 10 µM (BTK [2]) [%] | IC50 (BTK [2]) [nM] | IC50 (JAK3) [nM] | remaining activity at 1 µM (JAK3) [%] | remaining activity at 10 µM (JAK3) [%] | IC50 (FGFR4) [nM]
C[S@+]([O-])c1c(F)c(F)c(F)c(F)c1C(=O)N1CC(n2nc(-c3ccc(Oc4ccccc4)cc3)c3c(N)ncnc32)C1 (racemic) [Compound I-37, (3-(4-amino-3-(4-phenoxyphenyl)-1H-pyrazolo[3,4-d]pyrimidin-1-yl)azetidin-1-yl)(2,3,4,5-tetrafluoro-6-(methylsulfinyl)phenyl)methanone] | X | 50 to 90 | > 90 | < 50 | < 50 | < 1000 | < 50 | < 50 | < 1000 | > 90 | > 90 | < 50 | < 50 | < 1000 | > 1000 | < 50 | < 50 | –
COCCOc1ccc(Nc2ncc(F)c(Nc3cccc(NC(=O)c4c(F)c(F)c(F)c(F)c4S(=O)(=O)N(C)C)c3)n2)cc1 [Compound I-59, 2-(N,N-dimethylsulfamoyl)-3,4,5,6-tetrafluoro-N-(3-((5-fluoro-2-((4-(2-methoxyethoxy)phenyl)amino)pyrimidin-4-yl)amino)phenyl)benzamide] | X | < 50 | < 50 | > 90 | > 90 | – | < 50 | < 50 | – | < 50 | < 50 | < 50 | < 50 | – | – | 50 to 90 | 50 to 90 | < 1000
CS(=O)(=O)c1c(F)c(F)c(F)c(F)c1C(=O)NCCCn1nc(-c2ccc(Oc3ccccc3)cc2)c2c(N)ncnc21 [Compound I-39, N-(3-(4-amino-3-(4-phenoxyphenyl)-1H-pyrazolo[3,4-d]pyrimidin-1-yl)propyl)-2,3,4,5-tetrafluoro-6-(methylsulfonyl)benzamide] | X | > 90 | > 90 | < 50 | < 50 | < 1000 | < 50 | < 50 | – | < 50 | < 50 | < 50 | < 50 | – | – | 50 to 90 | < 50 | < 1000
C[S+]([O-])c1c(F)c(F)c(F)c(F)c1C(=O)N1CCC[C@@H](n2nc(-c3ccc(Oc4ccccc4)cc3)c3c(N)ncnc32)C1 (stereo partly drawn) [Compound I-36, ((R)-3-(4-amino-3-(4-phenoxyphenyl)-1H-pyrazolo[3,4-d]pyrimidin-1-yl)piperidin-1-yl)(2,3,4,5-tetrafluoro-6-(methylsulfinyl)phenyl)methanone] | X | > 90 | > 90 | > 90 | > 90 | – | < 50 | < 50 | – | > 90 | < 50 | < 50 | < 50 | < 1000 | – | > 90 | 50 to 90 | –
Nc1ncnc2c1c(-c1ccc(Oc3ccccc3)cc1)nn2CCNC(=O)c1c(F)c(F)c(F)c(F)c1S(N)(=O)=O [Compound I-42, N-(2-(4-amino-3-(4-phenoxyphenyl)-1H-pyrazolo[3,4-d]pyrimidin-1-yl)ethyl)-2,3,4,5-tetrafluoro-6-sulfamoylbenzamide] | X | > 90 | > 90 | 50 to 90 | < 50 | – | < 50 | < 50 | < 1000 | 50 to 90 | 50 to 90 | < 50 | 50 to 90 | < 1000 | – | > 90 | 50 to 90 | –
CN(C)S(=O)(=O)c1c(F)c(F)c(F)c(F)c1C(=O)NCCn1nc(-c2ccc(Oc3ccccc3)cc2)c2c(N)ncnc21 [Compound I-40, N-(2-(4-amino-3-(4-phenoxyphenyl)-1H-pyrazolo[3,4-d]pyrimidin-1-yl)ethyl)-2-(N,N-dimethylsulfamoyl)-3,4,5,6-tetrafluorobenzamide] | X | > 90 | > 90 | < 50 | < 50 | – | < 50 | < 50 | – | 50 to 90 | < 50 | < 50 | < 50 | < 1000 | – | > 90 | 50 to 90 | –
Nc1ncnc2c1c(-c1ccc(Oc3ccccc3)cc1)nn2[C@@H]1CCN(S(=O)(=O)c2c(F)c(F)c(F)c(F)c2OCF)C1 [Compound I-24, (R)-3-(4-phenoxyphenyl)-1-(1-((2,3,4,5-tetrafluoro-6-(fluoromethoxy)phenyl)sulfonyl)pyrrolidin-3-yl)-1H-pyrazolo[3,4-d]pyrimidin-4-amine] | X | – | – | > 90 | > 90 | – | < 50 | < 50 | – | < 50 | < 50 | < 50 | < 50 | – | – | > 90 | 50 to 90 | > 1000
COCCOc1ccc(Nc2ncc(F)c(Nc3cccc(NC(=O)c4c(F)c(F)c(F)c(F)c4S(C)(=O)=O)c3)n2)cc1 [Compound I-61, 2,3,4,5-tetrafluoro-N-(3-((5-fluoro-2-((4-(2-methoxyethoxy)phenyl)amino)pyrimidin-4-yl)amino)phenyl)-6-(methylsulfonyl)benzamide] | X | – | – | > 90 | < 50 | – | < 50 | < 50 | – | < 50 | < 50 | < 50 | < 50 | – | < 1000 | < 50 | < 50 | < 1000
CS(=O)(=O)c1c(F)c(F)c(F)c(F)c1CNCCNc1ncnc2[nH]ccc12 [Compound I-50, N^1-(7H-pyrrolo[2,3-d]pyrimidin-4-yl)-N2-(2,3,4,5-tetrafluoro-6-(methylsulfonyl)benzyl) ethane-1,2-diamine] | X | – | – | > 90 | 50 to 90 | – | < 50 | < 50 | < 1000 | > 90 | 50 to 90 | < 50 | < 50 | < 1000 | > 1000 | < 50 | < 50 | –
